Results as given in US12569438B2, “Nanomaterials containing constrained lipids and uses thereof” (GEORGIA TECH RESEARCH CORPORATION, priority 2019, dated 2026).

System: splenic T cells
Test: DNA barcode/siGFP high throughput in vivo screen: delivery and enrichment of pooled LNPs in GFP^Low splenic T cells
Set-up: species or system mice
Conditions: pooled LNPs 1.5 mg/kg total iv, 3 days
Source text: DNA Barcoding. Each chemically distinct LNP was formulated to carry its own unique DNA barcode and siRNA. For example, LNP1 carried DNA barcode 1 and siICAM2, while the chemically distinct LNP2 carried DNA barcode 2 and siGFP. Single stranded DNA sequences were purchased from Integrated DNA Technologies (IDT). To ensure equal amplification of each sequence, we included universal forward and reverse primer regions. Each barcode was distinguished using a unique 8 nucleotide sequence. An 8 nucleotide sequence can generate 65,536 distinct barcodes. 156 distinct sequences designed to prevent sequence ‘bleaching’ on the Illumina MiniSeq sequencing machine were used.
Animal Experiments. […] Mice were injected intravenously via the lateral tail vein. The nanoparticle concentration was determined using NanoDrop (Thermo Scientific).
Cell Isolation & Staining. […]
LNP delivery of siRNA to target cells (in this case, T lymphocytes) as well as 8 off-target cell types in vivo was evaluated. siGFP chemically modified to reduce immunostimulation and enhance on-target silencing via preferential antisense RISC loading (FIG. S2A) was used. […] The GFP acted as the functional delivery readout. […] Thus, 3 days after injecting mice, GFP^Low cells were isolated using fluorescence activated cell sorting (FACS), and deep sequenced to quantify the efficiency with which all N LNPs delivered barcodes into the cells. […]

SMILES: CCCCC/C=C\C/C=C\CCCCCCCC(=O)OCC(COC(=O)C[C@]12CC3CC(C[C@@H](C3)C1)C2)COC(=O)OCCCN(CC)CC (some centres unmarked) [Lipomer 11-A, 3-[(1-Adamantanyl)acetoxy]-2-{[3-(diethylamino)propoxycarbonyloxy]methyl}propyl (9Z,12Z)-9,12-octadecadienoate]
- Normalized DNA delivery (GFP^Low splenic T cells): significantly more delivery than 11-L and 11-S
- Enrichment in T Cells (splenic T cells, top 10% vs bottom 10% LNPs, DSPC formulations): most enriched
